Reference: the kinase profiling compilation of Christmann-Franck et al. (2016)

How the values were obtained:
Assay in all cases: KINOMEscan competition binding
[1] = target: CAMK2A (human) (UniProt Q9UQM7)
[2] = target: EPHB4 (human) (UniProt P54760)
[3] = target: CAMKK1 (human) (UniProt Q8N5S9)
[4] = target: YES1 (human) (UniProt P07947)
[5] = target: STK16 (human) (UniProt O75716)
[6] = target: PDGFRB (human) (UniProt P09619)
[7] = target: CAMK2G (human) (UniProt Q13555)
[8] = target: PAK7 (human) (UniProt Q9P286)
[9] = target: EPHB1 (human) (UniProt P54762)
[10] = target: LYN (human) (UniProt P07948)
[11] = target: EPHA4 (human) (UniProt P54764)
[12] = target: TNK2 (human) (UniProt Q07912)
[13] = target: NEK9 (human) (UniProt Q8TD19)
NEK9 (human), sequence (Q8TD19 whole entry, looked up): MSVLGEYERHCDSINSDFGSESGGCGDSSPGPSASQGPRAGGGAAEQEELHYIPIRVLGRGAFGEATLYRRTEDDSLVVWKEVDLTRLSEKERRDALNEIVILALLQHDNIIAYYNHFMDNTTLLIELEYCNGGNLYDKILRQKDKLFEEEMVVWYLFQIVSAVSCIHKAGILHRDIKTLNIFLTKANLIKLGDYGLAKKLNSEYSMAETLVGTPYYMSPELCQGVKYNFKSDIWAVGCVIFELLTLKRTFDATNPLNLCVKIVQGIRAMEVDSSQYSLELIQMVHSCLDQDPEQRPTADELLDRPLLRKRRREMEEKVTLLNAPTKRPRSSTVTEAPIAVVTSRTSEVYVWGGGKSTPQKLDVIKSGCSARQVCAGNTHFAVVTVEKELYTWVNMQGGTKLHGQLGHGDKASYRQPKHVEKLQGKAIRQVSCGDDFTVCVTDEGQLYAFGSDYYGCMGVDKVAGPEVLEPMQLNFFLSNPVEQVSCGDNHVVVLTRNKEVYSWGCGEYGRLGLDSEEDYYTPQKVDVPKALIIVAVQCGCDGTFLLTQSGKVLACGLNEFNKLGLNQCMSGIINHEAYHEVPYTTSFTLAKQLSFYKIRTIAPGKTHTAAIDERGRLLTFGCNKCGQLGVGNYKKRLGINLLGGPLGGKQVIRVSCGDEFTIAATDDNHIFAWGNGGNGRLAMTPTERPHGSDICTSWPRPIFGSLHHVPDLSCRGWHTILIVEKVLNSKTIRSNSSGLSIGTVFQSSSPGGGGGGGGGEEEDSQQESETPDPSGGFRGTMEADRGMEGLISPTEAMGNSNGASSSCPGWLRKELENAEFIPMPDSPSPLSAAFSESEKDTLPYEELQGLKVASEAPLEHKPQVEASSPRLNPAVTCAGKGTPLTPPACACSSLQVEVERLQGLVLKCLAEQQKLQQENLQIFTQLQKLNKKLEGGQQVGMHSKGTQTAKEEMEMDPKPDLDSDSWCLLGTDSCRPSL

[14] = target: PTK6 (human) (UniProt Q13882)
[15] = target: JAK1 JH1 catalytic (human) (UniProt P23458)
[16] = target: JAK2 JH2 pseudokinase (human) (UniProt O60674)
[17] = target: FLT4 (human) (UniProt P35916)
[18] = target: ABL1 (human), P00519 [M351T]
[19] = target: MAPK11 (human) (UniProt Q15759)
[20] = target: STK17B (human) (UniProt O94768)
STK17B (human), sequence (O94768 whole entry, looked up): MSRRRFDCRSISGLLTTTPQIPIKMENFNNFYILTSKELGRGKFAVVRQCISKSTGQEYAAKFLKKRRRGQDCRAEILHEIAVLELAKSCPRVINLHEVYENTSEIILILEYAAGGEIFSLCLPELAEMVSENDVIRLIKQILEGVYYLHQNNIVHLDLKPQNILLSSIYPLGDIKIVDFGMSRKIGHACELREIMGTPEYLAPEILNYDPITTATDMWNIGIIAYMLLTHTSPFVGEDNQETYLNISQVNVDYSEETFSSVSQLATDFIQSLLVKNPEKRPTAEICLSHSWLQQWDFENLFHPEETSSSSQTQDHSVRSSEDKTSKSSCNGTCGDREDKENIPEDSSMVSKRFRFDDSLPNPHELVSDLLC

[21] = target: CLK1 (human) (UniProt P49759)
[22] = target: FGFR3 (human) (UniProt P22607)
FGFR3 (human), sequence (P22607 whole entry, looked up): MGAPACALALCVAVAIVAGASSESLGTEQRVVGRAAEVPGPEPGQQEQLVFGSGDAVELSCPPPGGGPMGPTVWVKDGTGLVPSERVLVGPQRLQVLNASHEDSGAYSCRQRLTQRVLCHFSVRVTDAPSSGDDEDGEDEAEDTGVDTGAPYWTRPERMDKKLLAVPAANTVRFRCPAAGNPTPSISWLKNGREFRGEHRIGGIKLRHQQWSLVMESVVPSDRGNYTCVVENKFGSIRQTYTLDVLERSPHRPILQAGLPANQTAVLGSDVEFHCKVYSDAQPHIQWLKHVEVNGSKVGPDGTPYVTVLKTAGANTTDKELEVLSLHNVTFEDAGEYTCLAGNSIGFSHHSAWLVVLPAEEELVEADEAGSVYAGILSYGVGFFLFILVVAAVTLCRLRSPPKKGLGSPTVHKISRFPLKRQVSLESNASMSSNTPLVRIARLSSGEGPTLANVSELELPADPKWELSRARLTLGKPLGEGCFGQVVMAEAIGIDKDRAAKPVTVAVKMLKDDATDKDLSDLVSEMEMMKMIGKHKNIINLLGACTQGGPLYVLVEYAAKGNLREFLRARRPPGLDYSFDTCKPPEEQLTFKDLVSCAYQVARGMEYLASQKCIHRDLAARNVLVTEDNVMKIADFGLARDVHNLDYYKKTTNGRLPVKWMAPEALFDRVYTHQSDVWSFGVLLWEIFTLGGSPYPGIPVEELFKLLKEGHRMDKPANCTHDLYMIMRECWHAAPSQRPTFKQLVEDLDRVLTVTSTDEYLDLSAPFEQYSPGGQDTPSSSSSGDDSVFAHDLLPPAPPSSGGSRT

[23] = target: PRKACA (human) (UniProt P17612)
[24] = target: FRK (human) (UniProt P42685)
[25] = target: ABL1 (human), P00519 [H396P]
[26] = target: FGFR2 (human) (UniProt P21802)
[27] = target: EPHA6 (human) (UniProt Q9UF33)
[28] = target: LIMK1 (human) (UniProt P53667)
[29] = target: ABL2 (human) (UniProt P42684)
[30] = target: INSR (human) (UniProt P06213)
INSR (human), sequence (P06213 whole entry, looked up): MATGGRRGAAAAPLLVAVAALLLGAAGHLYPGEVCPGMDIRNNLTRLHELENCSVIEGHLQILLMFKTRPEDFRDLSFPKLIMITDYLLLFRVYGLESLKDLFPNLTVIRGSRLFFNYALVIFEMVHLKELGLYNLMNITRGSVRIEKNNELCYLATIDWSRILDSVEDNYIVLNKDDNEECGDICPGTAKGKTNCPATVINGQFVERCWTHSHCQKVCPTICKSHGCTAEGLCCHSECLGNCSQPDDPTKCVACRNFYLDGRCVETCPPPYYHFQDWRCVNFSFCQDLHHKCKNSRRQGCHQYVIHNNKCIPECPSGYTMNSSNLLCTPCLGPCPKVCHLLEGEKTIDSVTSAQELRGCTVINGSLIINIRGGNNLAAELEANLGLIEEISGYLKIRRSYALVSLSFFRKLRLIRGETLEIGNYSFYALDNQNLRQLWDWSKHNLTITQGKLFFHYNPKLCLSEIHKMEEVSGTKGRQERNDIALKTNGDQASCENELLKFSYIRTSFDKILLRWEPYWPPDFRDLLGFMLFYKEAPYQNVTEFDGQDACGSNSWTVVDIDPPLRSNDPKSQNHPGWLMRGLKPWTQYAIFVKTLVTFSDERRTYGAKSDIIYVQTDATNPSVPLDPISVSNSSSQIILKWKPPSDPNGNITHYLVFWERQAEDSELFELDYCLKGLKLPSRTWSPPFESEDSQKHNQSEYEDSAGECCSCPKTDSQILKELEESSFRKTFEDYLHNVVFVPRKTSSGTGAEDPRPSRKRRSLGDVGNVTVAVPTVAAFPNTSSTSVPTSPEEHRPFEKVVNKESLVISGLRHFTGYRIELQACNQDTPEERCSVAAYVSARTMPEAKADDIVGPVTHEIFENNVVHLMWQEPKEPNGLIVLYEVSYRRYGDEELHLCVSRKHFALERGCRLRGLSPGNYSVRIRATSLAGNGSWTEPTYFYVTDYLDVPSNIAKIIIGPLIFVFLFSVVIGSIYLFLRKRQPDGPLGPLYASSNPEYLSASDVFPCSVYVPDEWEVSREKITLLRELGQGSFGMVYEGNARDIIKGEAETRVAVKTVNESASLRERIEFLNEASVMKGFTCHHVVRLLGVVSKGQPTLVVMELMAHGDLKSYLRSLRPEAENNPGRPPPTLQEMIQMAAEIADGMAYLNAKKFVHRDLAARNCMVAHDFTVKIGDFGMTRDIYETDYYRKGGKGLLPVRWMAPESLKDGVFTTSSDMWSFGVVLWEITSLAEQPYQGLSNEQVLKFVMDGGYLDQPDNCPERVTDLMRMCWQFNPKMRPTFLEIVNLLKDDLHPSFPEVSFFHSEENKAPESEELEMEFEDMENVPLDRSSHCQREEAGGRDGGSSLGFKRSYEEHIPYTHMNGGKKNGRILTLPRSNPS

[31] = target: ABL1 (human), P00519 [Y253F]
[32] = target: AURKA (human) (UniProt O14965)
[33] = target: CLK2 (human) (UniProt P49760)
[34] = target: DAPK2 (human) (UniProt Q9UIK4)
[35] = target: STK17A (human) (UniProt Q9UEE5)
[36] = target: STK4 (human) (UniProt Q13043)
[37] = target: RPS6KA2 KD1 (human) (UniProt Q15349)
[38] = target: SLK (human) (UniProt Q9H2G2)
[39] = target: STK3 (mouse); settings: accession and sequence are those of the human protein
[40] = target: CAMKK2 (human) (UniProt Q96RR4)
[41] = target: PLK4 (human) (UniProt O00444)
[42] = target: SYK (human) (UniProt P43405)

YES1 (human), sequence (P07947 whole entry, looked up): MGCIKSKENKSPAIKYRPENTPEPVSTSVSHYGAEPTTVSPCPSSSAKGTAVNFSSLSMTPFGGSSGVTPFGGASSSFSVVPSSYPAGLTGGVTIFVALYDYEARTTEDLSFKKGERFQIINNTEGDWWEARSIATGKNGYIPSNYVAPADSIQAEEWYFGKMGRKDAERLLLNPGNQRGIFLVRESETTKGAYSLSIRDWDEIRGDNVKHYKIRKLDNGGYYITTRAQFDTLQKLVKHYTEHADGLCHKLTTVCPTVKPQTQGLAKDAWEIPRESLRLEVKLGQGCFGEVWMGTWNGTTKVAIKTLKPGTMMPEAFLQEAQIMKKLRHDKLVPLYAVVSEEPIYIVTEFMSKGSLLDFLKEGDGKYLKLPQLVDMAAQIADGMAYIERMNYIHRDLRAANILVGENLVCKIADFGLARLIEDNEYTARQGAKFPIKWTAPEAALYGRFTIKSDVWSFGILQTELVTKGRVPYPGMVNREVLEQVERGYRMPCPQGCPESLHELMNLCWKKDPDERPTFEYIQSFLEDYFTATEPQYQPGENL
CAMK2A (human), sequence (Q9UQM7 whole entry, looked up): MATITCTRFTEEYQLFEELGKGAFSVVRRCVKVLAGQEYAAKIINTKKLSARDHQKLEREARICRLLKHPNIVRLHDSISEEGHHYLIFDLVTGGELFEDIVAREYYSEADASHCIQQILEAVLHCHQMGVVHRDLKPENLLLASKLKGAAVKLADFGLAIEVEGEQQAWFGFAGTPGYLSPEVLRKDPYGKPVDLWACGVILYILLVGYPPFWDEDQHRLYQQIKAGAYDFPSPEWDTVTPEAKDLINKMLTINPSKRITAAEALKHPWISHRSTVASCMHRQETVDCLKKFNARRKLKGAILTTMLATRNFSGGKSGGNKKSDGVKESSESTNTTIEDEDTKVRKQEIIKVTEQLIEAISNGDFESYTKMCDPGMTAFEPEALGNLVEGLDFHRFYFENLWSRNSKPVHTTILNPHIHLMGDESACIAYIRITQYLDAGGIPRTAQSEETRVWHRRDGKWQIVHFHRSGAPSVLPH
STK16 (human), sequence (O75716 whole entry, looked up): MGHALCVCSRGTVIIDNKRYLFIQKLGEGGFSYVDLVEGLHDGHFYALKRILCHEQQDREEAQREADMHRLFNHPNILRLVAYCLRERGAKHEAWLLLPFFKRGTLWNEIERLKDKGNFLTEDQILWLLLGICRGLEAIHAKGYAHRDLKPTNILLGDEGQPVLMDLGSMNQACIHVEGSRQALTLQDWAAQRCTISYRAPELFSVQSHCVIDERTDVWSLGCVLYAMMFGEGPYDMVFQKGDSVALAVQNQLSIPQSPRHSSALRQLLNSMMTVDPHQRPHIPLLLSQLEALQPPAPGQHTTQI

| Compound | Kd [1] [µM] | Kd [2] [µM] | Kd [3] [µM] | Kd [4] [µM] | Kd [5] [µM] | Kd [6] [µM] | Kd [7] [µM] | Kd [8] [µM] | Kd [9] [µM] | Kd [10] [µM] | Kd [11] [µM] | Kd [12] [µM] | Kd [13] [µM] | Kd [15] [µM] | Kd [16] [µM] | Kd [17] [µM] | Kd [18] [µM] | Kd [20] [µM] | Kd [21] [µM] | Kd [22] [µM] | also measured |
| --- | --- | --- | --- | --- | --- | --- | --- | --- | --- | --- | --- | --- | --- | --- | --- | --- | --- | --- | --- | --- | --- |
| O=C1c2ccccc2-c2n[nH]c3cccc1c23 | > 10 | > 10 | > 10 | > 10 | 0.51 | > 10 | > 10 | > 10 | > 10 | > 10 | > 10 | > 10 | > 10 | > 10 | > 10 | > 10 | > 10 | > 10 | > 10 | > 10 | Kd [14]: > 10 µM; Kd [19]: > 10 µM; Kd [23]: > 10 µM; Kd [24]: > 10 µM; Kd [25]: > 10 µM; Kd [26]: 1.9 µM; Kd [27]: > 10 µM; Kd [28]: > 10 µM; Kd [29]: > 10 µM; Kd [30]: > 10 µM; Kd [31]: > 10 µM |
| Oc1ccc(-c2nc(-c3ccc(F)cc3)c(-c3ccncc3)[nH]2)cc1 | > 10 | > 10 | > 10 | > 10 | > 10 | > 10 | > 10 | > 10 | > 10 | > 10 | > 10 | > 10 | > 10 | > 10 | > 10 | > 10 | > 10 | > 10 | > 10 | > 10 | Kd [32]: > 10 µM; Kd [33]: > 10 µM; Kd [34]: > 10 µM; Kd [35]: > 10 µM; Kd [36]: > 10 µM; Kd [37]: > 10 µM; Kd [38]: > 10 µM; Kd [39]: > 10 µM; Kd [40]: > 10 µM; Kd [41]: > 10 µM; Kd [23]: > 10 µM; Kd [25]: > 10 µM; Kd [26]: > 10 µM; Kd [27]: > 10 µM; Kd [28]: > 10 µM; Kd [42]: > 10 µM; Kd [29]: > 10 µM; Kd [30]: > 10 µM; Kd [31]: > 10 µM |
